Results from patent US7112654B2, “Ligand for vascular endothelial growth factor receptor” (Supratek Pharma Inc., priority 2001, dated 2006).
Ends that are not written are not given here.

Assays:
[1] = biological target: hFlt-1 (Homo sapiens, UniProt P17948); test: Binding of alanine-substituted and truncated phage clones to immobilized Flt-1 receptor by ELISA; settings: relative to clone V5.2
[2] = biological target: VEGF receptor-1 (human Flt-1/Fc chimera) (Homo sapiens, UniProt P17948); test: Phage binding assay to immobilized VEGF receptor-1 (anti-M13 ELISA); settings: 10^9 virions/200 μl, overnight at 4 degree
Chain of VEGF receptor-1 (human Flt-1/Fc chimera) (P17948 27-687 isoform P17948-2 limits assumed): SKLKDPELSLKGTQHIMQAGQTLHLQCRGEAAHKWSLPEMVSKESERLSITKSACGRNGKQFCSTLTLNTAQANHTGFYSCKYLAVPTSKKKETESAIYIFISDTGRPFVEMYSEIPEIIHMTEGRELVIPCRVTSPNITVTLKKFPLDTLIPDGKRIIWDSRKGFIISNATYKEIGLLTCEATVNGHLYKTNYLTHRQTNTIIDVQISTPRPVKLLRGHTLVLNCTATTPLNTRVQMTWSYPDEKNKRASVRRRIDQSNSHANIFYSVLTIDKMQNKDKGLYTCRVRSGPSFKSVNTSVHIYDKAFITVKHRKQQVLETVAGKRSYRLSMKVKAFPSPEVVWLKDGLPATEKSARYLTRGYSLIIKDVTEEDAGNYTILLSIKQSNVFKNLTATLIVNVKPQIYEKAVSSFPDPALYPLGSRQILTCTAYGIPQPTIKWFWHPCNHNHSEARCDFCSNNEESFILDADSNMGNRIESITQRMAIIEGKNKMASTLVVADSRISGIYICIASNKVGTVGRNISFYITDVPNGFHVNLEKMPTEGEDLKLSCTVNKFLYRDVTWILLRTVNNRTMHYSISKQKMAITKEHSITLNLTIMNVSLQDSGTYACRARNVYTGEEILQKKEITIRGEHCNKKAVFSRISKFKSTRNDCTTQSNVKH

[3] = system: endothelial cells; settings: VEGF binding to KDR; cited from earlier work
[4] = biological target: Flt-1 (Homo sapiens, UniProt P17948); settings: cited from earlier work
Chain of Flt-1 (P17948 27-1338, species assumed): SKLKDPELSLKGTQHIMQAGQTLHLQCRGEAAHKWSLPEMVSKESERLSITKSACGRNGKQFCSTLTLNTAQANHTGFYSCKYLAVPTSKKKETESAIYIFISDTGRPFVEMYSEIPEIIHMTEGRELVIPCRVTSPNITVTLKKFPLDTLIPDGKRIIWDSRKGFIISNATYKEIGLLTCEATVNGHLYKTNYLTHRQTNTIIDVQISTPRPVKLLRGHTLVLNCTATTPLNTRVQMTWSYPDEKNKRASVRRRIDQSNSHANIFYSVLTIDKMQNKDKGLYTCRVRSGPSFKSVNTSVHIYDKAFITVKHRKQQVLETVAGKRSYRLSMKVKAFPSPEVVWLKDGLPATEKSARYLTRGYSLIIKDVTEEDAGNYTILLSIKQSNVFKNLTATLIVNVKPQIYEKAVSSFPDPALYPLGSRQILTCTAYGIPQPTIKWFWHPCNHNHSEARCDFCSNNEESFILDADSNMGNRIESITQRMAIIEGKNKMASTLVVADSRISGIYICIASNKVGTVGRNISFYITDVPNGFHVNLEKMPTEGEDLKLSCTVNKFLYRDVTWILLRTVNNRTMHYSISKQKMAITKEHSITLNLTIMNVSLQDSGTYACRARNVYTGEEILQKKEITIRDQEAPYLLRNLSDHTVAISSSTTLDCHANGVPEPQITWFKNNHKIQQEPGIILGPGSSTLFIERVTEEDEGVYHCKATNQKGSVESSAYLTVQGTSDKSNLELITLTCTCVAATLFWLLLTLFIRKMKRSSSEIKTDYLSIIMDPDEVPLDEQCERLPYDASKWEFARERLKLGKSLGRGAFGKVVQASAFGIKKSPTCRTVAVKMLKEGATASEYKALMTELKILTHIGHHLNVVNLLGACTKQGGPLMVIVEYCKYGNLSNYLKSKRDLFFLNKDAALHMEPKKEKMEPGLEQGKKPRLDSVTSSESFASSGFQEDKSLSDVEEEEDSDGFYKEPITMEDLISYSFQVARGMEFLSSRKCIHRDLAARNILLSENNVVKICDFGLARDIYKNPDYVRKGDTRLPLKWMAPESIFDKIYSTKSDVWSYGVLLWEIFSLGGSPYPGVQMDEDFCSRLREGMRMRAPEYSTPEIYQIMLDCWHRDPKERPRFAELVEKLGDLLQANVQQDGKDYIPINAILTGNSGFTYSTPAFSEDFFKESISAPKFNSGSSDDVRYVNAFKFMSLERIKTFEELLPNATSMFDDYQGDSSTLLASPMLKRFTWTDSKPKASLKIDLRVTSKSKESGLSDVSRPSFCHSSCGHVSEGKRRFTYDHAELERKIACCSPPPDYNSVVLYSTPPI

Chain of hFlt-1 (P17948 27-687 isoform P17948-2 limits assumed): as the sequence (P17948 27-687 isoform P17948-2 limits assumed) above

Row | Substance | Binding to hFlt-1 in % [1] | ABSORBANCE, A 405 [2] | other results
1 | EIEWYSW (displayed on phage; Chemical peptide synthesis and biosynthesis utilizing E. coli) [V5.2/1] | 6.55 ± 15.81% | – | –
2 | PEPEVRLSPPGHIQSL [V5.10] | – | 0.039 ± 0.013 | –
3 | NGYAIAWYSWVTHGMY (displayed on phage; Chemical peptide synthesis and biosynthesis utilizing E. coli) [E46/A] | 44.46 ± 7.05% | – | –
4 | VEGF | – | – | ED50 [3]: 0.1 to 1 ng/mL; Kd [4]: 0.01 to 0.02 nM
5 | FVGGWLVPEDERLYPE [V40] | – | 0.025 ± 0.014 | –
6 | NGYEIEAYSAVTHGMY (displayed on phage; Chemical peptide synthesis and biosynthesis utilizing E. coli) [W710/A] | 62.15 ± 22.16% | – | –
